Measurements as given in article PMC10349806 (Nature Communications, 2023).
Values joined by “and” are separate entries in the source; they are usually repeats but may differ in a detail not shown here. Identical values can stand only once.

Target: T1, PfCRT variant H97A (Plasmodium falciparum, UniProt Q9N623, A220S/H97A/I356T/K76T/M74I/N326S/N75E/Q271E/R371I)
T1 sequence (Q9N623 1-424 M74I/N75E/K76T/H97A/A220S/Q271E/N326S/I356T/R371I): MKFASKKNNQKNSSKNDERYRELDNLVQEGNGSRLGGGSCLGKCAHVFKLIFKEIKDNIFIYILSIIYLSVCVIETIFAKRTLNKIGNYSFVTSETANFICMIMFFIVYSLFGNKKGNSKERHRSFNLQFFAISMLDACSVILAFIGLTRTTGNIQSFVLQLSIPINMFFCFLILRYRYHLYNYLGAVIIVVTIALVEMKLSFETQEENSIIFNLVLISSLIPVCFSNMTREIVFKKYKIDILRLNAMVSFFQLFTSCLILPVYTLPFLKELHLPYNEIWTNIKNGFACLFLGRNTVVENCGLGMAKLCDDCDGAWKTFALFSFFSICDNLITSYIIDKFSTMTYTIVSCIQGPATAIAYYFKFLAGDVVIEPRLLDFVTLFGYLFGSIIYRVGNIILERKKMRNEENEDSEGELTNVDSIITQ
Assay: CQ uptake assay, oocytes expressing H97A
Assay type: cell-based
Method: Site-directed mutagenesis of PfCRT^Dd2 was performed as described using the megaprimer method with overlap extension[21],[54]. The primer pairs used are listed in Supplementary Table 6. Please note that a codon-optimized and oocyte-adapted version of PfCRT^Dd2 was used[22] (Supplementary Fig. 16). The resulting DNA fragment was cloned into the SP64T expression vector and verified by sequencing.
Oocytes were obtained as described previously. Briefly, adult (>2 years old) female X. laevis frogs (NASCO) were anesthetized in a cooled solution of ethyl 3-amino benzoate methanesulfonate (0.1%, w/v), followed by a surgical removal of parts of the ovary. The ovary lobes were carefully dissected and small pieces of oocytes were incubated in Ca^2+-free ND96 buffer (96 mM NaCl, 2 mM KCl, 1 mM MgCl2 buffered with 5 mM HEPES/NaOH, pH 7.5) supplemented with collagenase D (0.1%, w/v; Roche), BSA (0.5%, w/v), and 9 mm Na2HPO4 at 18 °C for 14-16 h while gentle shaking. After incubation, the oocytes were carefully washed several times with ND96 buffer (96 mM NaCl, 2 mM KCl, 1.8 mM CaCl2, 1 mM MgCl2 buffered with 5 mM HEPES/NaOH, pH 7.5) supplemented with 100 mg l^−1 gentamycin). Defolliculated and healthy-looking stage V-VI oocytes were manually selected for RNA microinjection. The RNA was generated as following: The codon-optimized sequences of PfCRT variants were cloned into the pSP64T expression vector. After vector linearization using the restriction endonucleases BamHI or SalI (New England Biolabs), transcription was performed using the in vitro SP6 mMessage mMachine Kit (Ambion)[34]. The obtained RNA was kept at −80 °C and diluted with nuclease-free water to a concentration of 0.6 μg μl^−1. Precision-bore glass capillary tubes (3.5-inch glass capillaries; Drummond Scientific Co.) were pulled on a vertical puller (P-87 Flaming/Brown micropipette puller, Sutter Instrument Co.), graduated, and placed on a microinjector (Nanoject II Auto-Nanoliter Injector, Drummond Scientific Co.). 50 nl of nuclease-free water alone (control oocytes) or 50 nl of 0.6 μg μl^−1 RNA were injected under stereomicroscopic control. Injected oocytes were incubated for 46–72 h at 18 °C with twice-daily buffer changes before usage in experiments.
Drug uptake assays were performed as described previously[21],[22],[24],[34]. […] Oocytes that were injected with water instead of RNA were analyzed in parallel, representing the uptake of a drug by diffusion and/or endogenous permeation pathways. […] The specific PfCRT-mediated uptake was determined by subtracting the corresponding background value measured in water-injected oocytes from that of PfCRT-expressing oocytes. […]

Question: For `CCN(CC)CCCC(C)Nc1ccnc2cc(Cl)ccc12` (stereo not shown) [CQ, chloroquine], which “Activity at pH 6.0” value (H97A, 50 µM CQ, 1 h, mean ± SEM) is on record?
Answer: Its value is 6.57 ± 0.71 pmol h-1 oocyte-1.

Question: And the R-value (H97A, CQ transport at pH 4.5 / pH 6.0)?
Answer: Its R-value is 0.40 and 0.40 ± 0.04.

Question: What about the “H97A transport activity pH 4.5” value (pH 4.5, single replicates, Fig 1d left) of the same molecule?
Answer: Its value is 3.71 pmol oocyte-1 h-1 and 4.69 pmol oocyte-1 h-1 and 2.51 pmol oocyte-1 h-1 and 3.21 pmol oocyte-1 h-1 and 2.32 pmol oocyte-1 h-1 and 1.49 pmol oocyte-1 h-1 and 2.15 pmol oocyte-1 h-1 and 1.58 pmol oocyte-1 h-1.

Question: And the “H97A transport activity pH 6.0” value (pH 6.0, single replicates, Fig 1d left)?
Answer: Its value is 9.31 pmol oocyte-1 h-1 and 6.25 pmol oocyte-1 h-1 and 4.00 pmol oocyte-1 h-1 and 9.52 pmol oocyte-1 h-1 and 5.42 pmol oocyte-1 h-1 and 3.89 pmol oocyte-1 h-1 and 6.61 pmol oocyte-1 h-1 and 7.56 pmol oocyte-1 h-1.
